Results: patent publication US7307171B2, “Materials and methods for inhibiting fouling of surfaces exposed to aquatic environments” (priority 2003, dated 2007)
Like-named read-outs stand apart in the source and are kept apart here.

Experiments:
[1] = test system: barnacle (Balanus amphitrite) cyprid larvae; assay: Barnacle cyprid larval 24 hour settlement inhibition assay; assay type: in vivo; conditions: for IC50: cyprid larvae, 24 hr exposure, probit analysis, interval in parentheses; for Inhibition Pot/Paralytic Pot: ratio of relative settlement inhibition potency to relative crayfish paralytic potency; for Barnacle Larvae Settlement Rel. Pot: relative to 2,3′-BP = 100; for Barnacle Larvae Settlement % Inhib: single concentration, three separate experiments, spread in parentheses; for anti-settlement activity (in words): barnacle larval settlement
Excerpt: (§1) While the cypris larval stage was used in settlement tests, the second naupliar larval stage was used in toxicity tests. Great care was taken to ensure that the free bases completely dissolved in aged sea water solutions previously filtered to remove particles >than 100 kDa. This was accomplished by diluting (by immediate and thorough vortexing) a 3×10^−2 Molar solution of the free base in methanol at least 1,000-fold into the filtered sea water. Diluted aqueous solutions of the compounds were not refrigerated and were used within an hour of preparation.

[2] = Barnacle naupliar larval 24 hour toxicity (mortality) assay; assay type: in vivo, Balanus amphitrite; conditions: Balanus amphitrite, in vivo, other: larvae exposed in sea water solution of the compound; second naupliar stage, 24 hr mortality; interval in parentheses; read-out: Barnacle Larvae Lethal Median Conc. LC50
Excerpt: as §1
(§2) All six possible unsubstituted bipyridyls were also tested.

[3] = test system: crayfish Procambarus clarkii; conditions: cited from earlier work; for Crayfish Paralysis PD50: Table 2 footnote 1: published previously (Kem, Soti 2001)
[4] = test system: crayfish Procambarus clarkii; conditions: for fold less toxic/paralytic than 2,3′-BP in crayfish: injected into crayfish, compared with 2,3′-BP; for Crayfish Paralysis Rel. Pot: relative to 2,3′-BP = 100; for crayfish paralytic activity (in words): crayfish paralysis assay; for Crayfish Paralysis PD50: Table 2, no footnote, paralysis 15 min after injection; for Crayfish Acute Paralytic Dose PD50: Table 1, no footnote, P. clarkii, injected into haemocoele, paralysis at 15 min
Experimental: Each alkaloid, dissolved in 0.9% sodium chloride containing 10 mM Tris buffer (pH 7.4), was injected into the haemocoele which surrounds the heart. Dose per unit weight was kept constant by injecting a variable volume, 0.10 ml per 10 g fresh weight. Paralysis was measured 15 minutes after injection by measuring the animal's ability, after being placed on its back, to right itself within a 2-minute period. Although the convulsive paralytic effect of the bipyridyls reached a peak about 2-minutes after injection, paralysis could be more conveniently measured 15 minutes after injection. Generally, the same number (10-20) of crayfish were injected at each dose, and the dose interval was kept constant. Before the assay, crayfish were tested to ascertain that they could right themselves within a one minute period.
Animals initially develop tremors, then flex their legs, repeatedly flip their tails, then fall on their side in a tonic convulsion within 2-5 minutes after injection. Recovery is appreciable within 15 minutes, the time selected as most convenient for evaluating groups of 5 animals rapidly injected one after another.

[5] = test system: barnacle second naupliar larval stage; assay: Barnacle naupliar larval 24 hour toxicity (mortality) assay; assay type: in vivo, Balanus amphitrite; conditions: 24 hr mortality, interval in parentheses, read-out: Barnacle Larvae Lethal Median Conc. LC50
Excerpt: as §1, §2

[6] = Table 1 footnote 2: published previously, P. clarkii from Louisiana (Kem, Soti 2001)
[7] = Table 1 footnote 1: published previously, P. clarkii from California (Kem 1976)

Row | Molecule | IC50 ([1]; Amphibalanus amphitrite) [µM] | LC50 at 24 h [2] [µM] | Inhibition Pot/Paralytic Pot [1] | Barnacle Larvae Settlement Rel. Pot [1] | Barnacle Larvae Settlement % Inhib [1] | Crayfish Paralysis Rel. Pot [4] | anti-settlement activity (in words) [1] | further results
1 | c1cnc(-c2cccnc2)nc1 [2-(3-pyridyl)-pyrimidine] | > 50 | > 50 |  |  |  |  |  | Crayfish Acute Paralytic Dose PD50 [3, 6]: 2.6^2 μg
2 | Cc1ccncc1-c1ccccn1 [4′-Me2,3′-BP, 4′-Methyl-2,3′-bipyridyl] |  |  | 56 | 167 | 90 (10) % | 3 |  | fold less toxic/paralytic than 2,3′-BP in crayfish [4]: 33 fold; crayfish paralytic activity as % of 2,3′-BP ([4]; relative to 2,3′-BP): 3%; Crayfish Paralysis PD50 [3]: 69^1 μg
3 | Cc1cccnc1-c1cccnc1 [3-Me2,3′-BP, 3-Methyl-2,3′-bipyridyl] |  |  | 2.1 | 63 | 34 (13) % | 30 |  | Crayfish Paralysis PD50 [3]: 59^1 μg
4 | c1cnc2c(c1)ccc1ccncc12 [1,9-phenanthroline] | 2 | > 50 |  |  |  |  | almost as active as 2,3′-BP | Crayfish Acute Paralytic Dose PD50 [3, 6]: 3.0^2 μg
5 | 1-methyl-2,3′-BP [1-Methyl-2,3′BP, reference compound] |  |  |  |  |  |  | low anti-settlement activity | IC50 [1]: > 100 µM; LC50 [5]: > 100 µM; crayfish paralytic activity (in words) [4]: very low paralytic activity; Crayfish Acute Paralytic Dose PD50 [3, 6]: >800^2 μg
6 | (S)-anabaseine |  |  |  |  |  |  | inhibited settlement | 
7 | c1cc(-c2ccncc2)ccn1 [4,4′-BP, 4,4′-bipyridyl] | > 100 |  |  |  |  |  |  | 
8 | c1cncc(C2=NCCCC2)c1 [Anabaseine, anabaseine] | 1.2 | 2 |  |  |  |  |  | crayfish paralytic activity (in words) [4]: slightly less paralytic than 2,3′-BP; fold less toxic/paralytic than 2,3′-BP in crayfish [4]: approximately 4 fold; Crayfish Acute Paralytic Dose PD50 [3, 7]: 3.6^1 μg
9 | Cc1cccc(-c2cccnc2)n1 [6-Me2,3′-BP, 6-methyl-2,3′-bipyridyl] |  |  | 0.27 | 30 | 16 (16) % | 112 |  | Crayfish Paralysis PD50 [4]: 1.6 µg
10 | 2-(thienyl)-pyridine [reference compound] |  |  |  |  |  |  | inactivity | IC50 [1]: > 100 µM; LC50 [5]: > 100 µM; Crayfish Acute Paralytic Dose PD50 [3, 6]: 650^2 μg
11 | c1cncc(-c2ccncc2)c1 [3,4′-BP, 3,4′-bipyidyl] |  |  |  |  |  |  |  | IC50 [1]: > 100 µM; LC50 [5]: > 20 µM; Crayfish Acute Paralytic Dose PD50 [4]: 61 µg
12 | Cc1ccc(-c2cccnc2)nc1 [5-Me2,3′-BP, 5-methyl-2,3′-bipyridyl] |  |  | 0.96 | 176 | 95 (5) % | 184 |  | Crayfish Paralysis PD50 [4]: 0.98 µg
13 | c1cnc2c(c1)ccc1ncccc12 [1,7-phenanthroline, reference compound] | > 50 | > 50 |  |  |  |  | inactive at a 10-fold higher concentration | crayfish paralytic activity (in words) [4]: low activity; Crayfish Acute Paralytic Dose PD50 [3, 6]: >30^2 μg
14 | c1ccc(-c2cccnc2)nc1 [2,3′-BP, 2,3′-Bipyridyl] | 4.1 | 1.9 | 1.0 | 100 | 54 (11) % | 100 |  | Crayfish Paralysis PD50 [4]: 1.8 µg; pKa (physchem): 4.4; Crayfish Acute Paralytic Dose PD50 [3, 7]: 0.88^1 μg; Crayfish Acute Paralytic Dose PD50 [3, 6]: 1.8^2 μg
15 | c1cncc(C2=NCCCN2)c1 [PTHP, 2-(3-pyridyl)-3,4,5,6-tetrahydropyrimidine, reference compound] | > 100 | > 100 |  |  |  |  | relative inactivity | crayfish paralytic activity (in words) [4]: very low paralytic activity; Crayfish Acute Paralytic Dose PD50 [3, 6]: 81^2 μg
16 | c1cncc([C@@H]2CCCCN2)c1 [Anabasine] | 3 |  |  |  |  |  |  | Crayfish Acute Paralytic Dose PD50 [4]: 3.9 µg
17 | c1cncc(-c2ccnc(-c3cccnc3)c2)c1 [Nicotelline] |  |  |  |  |  |  | displayed an activity similar to nemertelline | 
18 | Cc1ccnc(-c2cccnc2)c1 [4-Me2,3′-BP, 4-Me2,3′-bipyridyl] |  |  | 3.1 | 154 | 83 (4) % | 50 |  | Crayfish Paralysis PD50 [4]: 3.6 µg
19 | Cc1ncccc1-c1ccccn1 [2′-Me2,3′-BP, 2′-Me2,3′-bipyridyl] |  |  | <0.05 | 0 | 0 (33) % | 1 |  | Crayfish Paralysis PD50 [3]: 210^1 μg
20 | Cc1ccc(-c2ccccn2)cn1 [6′-Me2,3′-BP, 6′-Methyl-2,3′-bipyridyl] |  |  | 3.7 | 56 | 30 (16) % | 15 |  | Crayfish Paralysis PD50 [4]: 12 µg
21 | c1ccc(-c2ccccn2)nc1 [2,2′-BP, 2,2′-bipyridyl] | 7 | 4.4 |  |  |  |  |  | Crayfish Acute Paralytic Dose PD50 [4]: >100 µg; fold less toxic/paralytic than 2,3′-BP in crayfish [4]: at least 50 fold
22 | Cc1cncc(-c2ccccn2)c1 [5′-Me2,3′-BP, 5′-Methyl-2,3′-bipyridyl] |  |  | 1.8 | 100 | 54 (28) % | 55 |  | Crayfish Paralysis PD50 [4]: 3.3 µg
23 | Clc1cccnc1-c1cccnc1 [3-Chloro-2,3′-BP, reference compound] |  |  |  |  |  |  | inability of the 3-chloro-2,3′-BP to inhibit settlement at 100 μM | IC50 [1]: > 100 µM; LC50 [5]: > 50 µM
24 | c1ccc(-c2ccncc2)nc1 [2,4′-BP, 2,4′-bipyridyl] | > 100 | > 50 |  |  |  |  |  | Crayfish Acute Paralytic Dose PD50 [4]: >20 µg
25 | nemertelline |  |  |  |  |  |  |  | IC50 [1]: 3.2 µM; Crayfish Acute Paralytic Dose PD50 [4]: >120 µg
26 | c1cncc(-c2cccnc2)c1 [3,3′-BP, 3,3′-bipyridyl] | > 100 | 10 |  |  |  |  |  | Crayfish Acute Paralytic Dose PD50 [4]: 17 µg
